# Reference: US11350582B2, “Plant varieties by application of endocides” (Stephen F. Austin State University, priority 2015, dated 2022)
# Read-outs that look alike come from different tables or passages of the source.
# Assays:
# S. molesta [1] = test: Phytotoxic analysis by pipet application on upper or lower leaf surface; format: in vivo, Salvinia molesta; conditions: Salvinia molesta, topical, 72 h
# Protocol: General Experimental Procedure: 4-Hydroxybenzoic and 3,4-dihydroxybenzoic acids and 14 of their analogs were purchased commercially. Each of 16 compounds were prepared as 5 mL experimental solutions with NANOPURE™ water at 1% concentration. A total of 102 healthy and untreated living type III plants of S. molesta (approximately 10 g in fresh weight each) were cultured and tested in 17 plastic containers (23×23 cm, 2.37 L) with six plants in each container in a greenhouse (30° C. during the day time and 20° C. at night). The first container served as the controls without any treatment, the plants in each of the other 16 containers were treated by one of the 16 testing compounds, respectively. The plants in each container were randomly classified into two groups evenly. For each plant in the first group, 10 μL of 1% experimental solution was applied by pipet on the upper surface of each blade of the six pairs of large floating leaves close to the terminal bud. For each plant in the second group, 10 μL of 1% experimental solution was applied by pipet on the lower surface of each blade of the six pairs of large floating leaves close to the terminal bud. The leaf surfaces were examined for damage and analyzed 72 hrs after the treatments.
# dihuang = conditions: in vivo; cited from earlier work
# S. molesta [2] = test: Mutation induction in giant salvinia by spray, greenhouse (Example 12); format: in vivo, Salvinia molesta
# Protocol: General Experimental Procedure: 4-hydroxybenzoic acid (>95%, HPLC analysis) and 3,4-dihydroxybenzoic acid (>95%) were isolated from S. molesta matter by using the method as described in Li, Wang et al. 2013. 4-Hydroxybenzoic and 3,4-dihydroxybenzoic acids were prepared as 50 mL experimental solution with NANOPURE™ water at eight concentrations, 0.015, 0.031, 0.063, 0.125, 0.25, 0.5, 1, and 2%, respectively.
# In each of 17 containers (14×15 cm, 0.68 L each), nine healthy and untreated living plants of S. molesta were cultured in tap water in a greenhouse (30° C. during the day time and 20° C. at night). The nine plants included three type I plants (approximately 1 g in fresh weight per plant), three type II plants (approximately 2 g per plant), and three type III plants (approximately 4 g per plant). The plants in each container were sprayed with 10 mL NANOPURE™ water or an experimental compound at various concentrations. Plant growth, morphological variation, and survival status were documented and photographed in each treatment for six weeks after the treatment. Then any new developed plants in each container were transferred into a container with new water for 10 weeks of culture observations.
# Azolla caroliniana = test: Greenhouse spray test on Carolina mosquito fern; format: in vivo; conditions: 0.5% concentration; 10 mL spray; fifth day
# Protocol: 4-Hydroxybenzoic and 3,4-dihydroxybenzoic acids were also tested against Carolina mosquito fern (Azolla caroliniana Willd.) (family Azollaceae). Six containers (14×15 cm, 0.68 L) with full cover of A. caroliniana were included in the tests: two without any treatments as controls, two were sprayed with 10 mL 0.5% 4-hydroxybenzoic acid each, and the others were sprayed with 10 mL 0.5% 3,4-dihydroxybenzoic acid each. Plant growth and survival status were documented and photographed in each treatment on the fifth day after the treatment.
# Salvinia molesta = test: Greenhouse spray test on giant salvinia, living biomass; format: in vivo; conditions: for type of new growth / decrease of living biomass weight compared to the water control: 1% concentration; for type of new growth: compound alone; for decrease of living biomass weight compared to the water control: nine days after the treatment; for Living Biomass (mean ± s.d.): 10 mL spray on three type III plants per container, day nine
# Protocol: General Experimental Procedure: Observations of giant salvinia growth in a greenhouse were performed under 28 different treatment conditions and control conditions with NANOPURE™ water or 0.5% DYNE-AMIC® (methyl esters of C16-C18 fatty acids, polyalkyleneoxide modified polydimethylsiloxane, and alkylphenol ethoxylate 99%, (Helena, Collierville, Tenn., United States)) (v:v).
# Materials—4-hydroxybenzoic acid (>95%, HPLC analysis) and 3,4-dihydroxybenzoic acid (>95%) were isolated from S. molesta matter using the method as described in (Li, Wang et al. 2013). Ethylparaben (>99%) was purchased from a commercial source. Each of 4-hydroxybenzoic acid, 3,4-dihydroxybenzoic acid, and ethylparaben were prepared as 50 mL experimental solutions with NANOPURE™ water at the concentration of 0.5, 1.0, 1.5, and 2.0%, respectively. 0.5, 1.0, 1.5, and 2.0% 4-hydroxybenzoic acid, 3,4-dihydroxybenzoic acid, and ethylparaben with 0.5% surfactant DYNE-AMIC® was also prepared as 50 mL experimental solutions with NANOPURE™ water. Mixtures of 4-hydroxybenzoic acid with 3,4-dihydroxybenzoic acid (2:1, w:w) were prepared as 50 mL experimental solutions with NANOPURE™ water at the total concentration of 0.5, 1.0, and 1.5%, respectively. 3,4-dihydroxybenzoic acid was mixed with ethylparaben (2:1, w:w) and prepared as 50 mL experimental solution with NANOPURE™ water at the total concentration of 0.5, 1.0, and 1.5%, respectively.
# Bioassay—For each treatment, a total of nine healthy and untreated living plants of S. molesta (type III, the biomass of three plants weighs approximately 10 g) were cultured in tap water in three plastic containers severing as three replications (14×15 cm, 0.68 L) with three plants each in a greenhouse (30° C. during the day time and 20° C. at night). The three plants in each of the three containers per treatment were sprayed with 10 mL NANOPURE™ water, 0.5% DYNE-AMIC®, or the experimental solution. Plant growth and survival status were documented and photographed in each treatment on day nine after the treatment. Pairwise comparisons for all treatments (including Control) in living biomass were made using Tukey test at alpha=0.05, which was done using SAS (SAS 9.4).
# [3] = 2% solution, 10 mL spray on nine plants (types I, II, III), six weeks
SMILES,effect on growth of dihuang (dihuang),survival and damage of S. molesta plants (S. molesta [2]; [3]),A. caroliniana eliminated (Azolla caroliniana),type of new growth (Salvinia molesta),decrease of living biomass weight compared to the water control (Salvinia molesta),Living Biomass (mean ± s.d.) (Salvinia molesta; total concentration 0.5%),Living Biomass (mean ± s.d.) (Salvinia molesta; total concentration 1.0%),Living Biomass (mean ± s.d.) (Salvinia molesta; total concentration 1.5%),Living Biomass (mean ± s.d.) (Salvinia molesta; total concentration 2.0%),also measured
"O=C(O)c1ccc(O)c(O)c1 [3,4-dihydroxybenzoic acid]",inhibit some growth,killed all of the plants and no new growth was observed,100%,type I only,76.5%,17.1 g,9.2 g,14.3 g,5.8 g,"pest or weed control at 1 % (S. molesta [1]; read-out: Inhibition (%) Lower leaf Application, 10 μL of 1% solution per blade, lower surface): 72.2%; pest or weed control at 1 % (S. molesta [1]; read-out: Inhibition (%) Upper leaf Application, 10 μL of 1% solution per blade, upper surface): > 85%; mutation induction in S. molesta (S. molesta [2]; 0.25, 0.5, and 1%): induced small leaf mutations; induced new growth type (S. molesta [2]; 0.5% or 1%, six weeks of observation): the new plants remained as type I"
O=C(O)c1ccc(O)cc1 [4-Hydroxybenzoic acid],inhibit some growth,died and showed no new growth,100%,type I only,85.5%,20.1 g,4.3 g,2.3 g,0 g,"pest or weed control at 1 % (S. molesta [1]; 10 μL of 1% solution per blade, lower surface, read-out: Inhibition (%) Lower leaf Application): 100%; pest or weed control at 1 % (S. molesta [1]; 10 μL of 1% solution per blade, upper surface, read-out: Inhibition (%) Upper leaf Application): > 85%; survival and damage of S. molesta plants (S. molesta [2]; 0.125% or lower concentrations, six weeks): no significant damage; survival and damage of S. molesta plants (S. molesta [2]; 0.25% solution, 10 mL spray on nine plants, first week): killed all floating leaves of the small plants (type I and II) and partially injured floating leaves of the type III plants; induced new growth type (S. molesta [2]; 0.25% solution, six weeks): Seven plants developed cupped floating leaves (type II); survival and damage of S. molesta plants (S. molesta [2]; 0.5% solution, 10 mL spray on nine plants): killed almost all floating leaves of the nine treated plant within a week; induced new growth type (S. molesta [2]; 0.5% solution, six weeks): all other newly emerged plants from axillary buds remained as type I; survival and damage of S. molesta plants (S. molesta [2]; 1% solution, 10 mL spray on nine plants (types I, II, III)): all six type I or II plants were dead without new growth within two days of the treatment; induced new growth type (S. molesta [2]; 1% solution, end of second week): three small plants (type I) emerged from the axillary buds of the type III plants; S. molesta plants eliminated (Salvinia molesta; 2% concentration): 100%"
